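Test compounds were applied to cells in 96-well plates for 48 hours at 5 doses. At the TGI there is no net growth.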
Experiments:
Assay in all cases: inhibition of tumour cell growth, NCI panel, 48 h
A549 NSCLC = system: A549 NSCLC
CAKI-1 renal = system: CAKI-1 renal
HCT-116 colon = system: HCT-116 colon
HOP-62 NSCLC = system: HOP-62 NSCLC
HT29 colon = system: HT29 colon
IGROV1 ovarian = system: IGROV1 ovarian
MALME-3M melanoma = system: MALME-3M melanoma
MCF7 breast = system: MCF7 breast
MDA-MB-231 breast = system: MDA-MB-231 breast
MOLT-4 leukemia = system: MOLT-4 leukemia
NCI-H226 lung = system: NCI-H226 lung
OVCAR-3 ovarian = system: OVCAR-3 ovarian
PC-3 prostate = system: PC-3 prostate
RXF 393 renal = system: RXF 393 renal
SK-MEL-5 melanoma = system: SK-MEL-5 melanoma
SR leukemia = system: SR leukemia
T-47D breast = system: T-47D breast
UACC-62 melanoma = system: UACC-62 melanoma
ACHN renal = system: ACHN renal
SNB-19 CNS = system: SNB-19 CNS

Row | Structure (SMILES) | TGI (A549 NSCLC) [µM] | TGI (CAKI-1 renal) [µM] | TGI (HCT-116 colon) [µM] | TGI (HOP-62 NSCLC) [µM] | TGI (HT29 colon) [µM] | TGI (IGROV1 ovarian) [µM] | TGI (MALME-3M melanoma) [µM] | TGI (MCF7 breast) [µM] | TGI (MDA-MB-231 breast) [µM] | TGI (MOLT-4 leukemia) [µM] | TGI (NCI-H226 lung) [µM] | TGI (OVCAR-3 ovarian) [µM] | TGI (PC-3 prostate) [µM] | TGI (RXF 393 renal) [µM] | TGI (SK-MEL-5 melanoma) [µM] | TGI (SR leukemia) [µM] | TGI (T-47D breast) [µM] | TGI (UACC-62 melanoma) [µM] | TGI (ACHN renal) [µM] | TGI (SNB-19 CNS) [µM]
1 | Clc1c(Cl)c(Cl)c2c(nnn2C2CCCO2)c1Cl (centres undefined) | 65.1 | 74.9 | > 100 | > 100 | > 100 | > 100 | 80.4 | > 100 | > 100 | 46.3 | > 100 | > 100 | > 100 | > 100 | > 100 | 91.4 | > 100 | > 100 |  | 
2 | CN(C)CCCC1c2ccccc2Oc2ccc(C(F)(F)F)cc21 (centres undefined) | 29.8 | 25.8 | 25.6 | 31 | 18.9 | 27.6 | 15.8 | 26.6 | 26 | 22.7 | 23.1 | 29.2 | 27.1 | 17.4 | 21 | 24.5 | 30.5 | 23.4 | 30.4 | 31.3
3 | O=C(NC(Cl)(C(F)(F)F)C(F)(F)F)c1ccc(F)cc1 | > 100 | > 100 | > 100 | > 100 | > 100 | > 100 | > 100 | > 100 | > 100 | > 100 | > 100 | > 100 | > 100 | > 100 | > 100 | > 100 | > 100 |  | > 100 | > 100
4 | S=C(NNC1=NCCCCN1)Nc1ccc(Cl)cc1 | > 100 | 0.0151 | > 100 | 31.7 | > 100 | > 100 | 55.7 | > 100 | > 100 | 47.1 | > 100 | > 100 | 62.8 | > 100 | 20.5 | 60.9 | > 100 | 18.9 | 90.2 | > 100
5 | COc1cc2c(cc1C[C@H]1[C@@H]3C[C@H]4c5c(c6ccccc6n5C)C[C@@H]([C@@H]3CO[C@]1(C)OC(C)=O)N4C)c1c(n2C)C2C[C@H]3C(C(C)=O)=COC[C@H]3[C@H](C1)N2C | > 25 | 9.06 | 5.39 | 6.29 | 4.86 | > 25 | 6.42 | > 25 | 11.2 | > 25 | 21.7 | 5.98 | 2.7 | 6.04 | 6.79 | 7.62 | 17.2 | 14.6 | 10.1 | > 25
6 | COc1cc(C(=O)/C=C/c2ccc(OCCSCCCCCCCCCCSCCOc3ccc(/C=C/C(=O)c4cc(OC)c(OC)c(OC)c4)cc3)cc2)cc(OC)c1OC | > 100 | > 100 | > 100 | > 100 | > 100 | > 100 | > 100 | > 100 | > 100 | > 100 |  | > 100 | > 100 | > 100 | > 100 | > 100 | > 100 | > 100 | > 100 | > 100
7 | CC(=O)OC(CN1CCN(c2ccccn2)CC1)Cn1sc2nc(C)cc(C)c2c1=O (centres undefined) | 45.8 | 37.2 | 30.5 | 81.1 | 34.4 | 33.4 | 32.6 | 34 | 32.6 | > 100 | > 100 | 50.7 | 31.3 | 35.6 | 26.1 | > 100 | 76.8 | 30 | 30 | > 100
8 | C[Si](C)(C)C#Cc1cc(-c2nc3ccccc3s2)ccc1N | 40.7 | 31 | 26.6 | 29.9 | 38.6 | 13.2 | 23.7 | 12 | 38 | 97.4 | 31.2 | 39.2 | 34.2 | 32.8 | 29.4 | 67.8 | > 100 | 33.2 | 29.1 | 34.6
9 | CCOC(=O)CCC(NC(=O)Cc1ccc(Nc2nc3ccccc3nc2-c2cccs2)cc1)C(=O)OCC (centres undefined) | > 100 | > 100 | > 100 | > 100 | > 100 |  | > 100 | > 100 | > 100 | > 100 | > 100 | > 100 | > 100 | 52.5 | > 100 | > 100 | 66.9 | > 100 | > 100 | > 100
10 | Cc1sc2[nH]c(=O)oc(=O)c2c1C | > 100 | > 100 | > 100 | > 100 | > 100 | > 100 | > 100 | > 78.9 | > 100 | > 100 | > 100 | > 100 | > 100 | > 100 | > 100 | > 100 | > 100 | > 100 | > 100 | > 100
11 | CC(=O)OCC(OC(C)=O)C(OC(C)=O)C(/C=N\Nc1nc2ccccc2c(=O)[nH]1)=N\Nc1nc2ccccc2c(=O)[nH]1 (centres undefined) | > 100 | > 100 | > 100 | > 100 | > 100 | > 100 | > 100 | > 100 | > 100 | > 100 | > 100 | > 100 | > 100 | > 100 | > 100 | > 100 | > 100 | > 100 | > 100 | > 100
12 | Cn1c2ccccc2n2c3ncccc3c(=NCCCC(=O)O)c(C#N)c12 | > 100 | > 100 | > 100 | > 100 | > 100 | > 100 | > 100 | > 100 | > 100 | > 100 | > 100 | > 100 | > 100 | > 100 | > 100 | > 100 | > 100 | > 100 | > 100 | > 100
13 | CC(C)(C)c1cc(-c2cc(C(C)(C)C)[nH]n2)n[nH]1 | > 100 | > 100 | > 100 | > 100 | > 100 | > 100 | > 100 | > 100 | > 100 | > 100 | > 100 | > 100 | > 100 | > 100 | > 100 | > 100 | > 100 | > 100 | > 100 | > 100
14 | O=C1NC(=S)N/C1=C\c1cc2c(=O)c3ccccc3sc2s1 |  | > 100 | > 100 | > 100 | > 100 | > 100 | > 100 | > 100 | > 100 | 69.5 | > 100 | > 100 | > 100 | > 100 | > 100 | > 100 | > 100 | > 100 | > 100 | > 100
15 | CCCCCCCCCCCCCCCCCCNc1ccn(C2OC(COP(=O)(O)OCC3OC(n4cc(C)c(=O)[nH]c4=O)CC3F)C(O)C2O)c(=O)n1 (centres undefined) | 46.7 | 16.8 | 42.8 | 33.1 | > 55 | 17.9 | 40.9 | > 64.5 | 48.7 | 15.4 | 59.5 | 50.5 | 5.38 | 3.84 | 44.9 | 5.14 | 44.2 | 12.6 | > 57.1 | 14.1
16 | CCCC(=O)NC(Nc1cc(C)ccn1)(C(=O)OCC)C(F)(F)F (centres undefined) | > 100 | > 100 | > 100 | > 100 | > 100 | > 100 | > 100 | > 100 | > 100 | > 100 | > 100 | > 100 | > 100 | > 100 | > 100 | > 100 | > 100 | > 100 | > 100 | > 100
17 | COC(=O)c1c(C)cccc1C1CN=NC12Cc1ccccc1C2=O (centres undefined) | > 100 | > 100 | > 100 | > 100 | > 100 | > 100 | > 100 | > 43.8 | > 100 | > 100 | > 100 | > 100 | > 100 | > 100 | > 100 | > 100 | > 100 | > 100 | > 100 | > 100
18 | O=c1ccn(CC2(CO)CCCC2)c(=O)[nH]1 | > 100 | > 100 | > 100 | > 100 | > 100 | > 100 | > 100 | > 100 | > 100 | > 100 | > 100 | > 100 | > 100 | > 100 | > 100 | > 100 | > 100 | > 100 | > 100 | 
19 | N#Cc1cnc(-n2[nH]c3c(c2=O)CCCC3)[nH]c1=O | > 100 | > 100 | > 100 |  | > 100 | > 100 | > 100 | > 100 | > 100 | > 100 | > 100 |  | > 100 | > 100 | > 100 | > 100 | > 100 | > 100 | > 100 | > 100
20 | COc1ccc(OC)c(CSc2ccc(OC)c(OC)c2)c1 | > 100 | > 100 | > 100 | > 100 | > 100 | > 100 | > 100 | > 100 | > 100 | > 100 | > 100 | > 100 | > 100 | > 100 | > 100 | > 100 | > 30.5 | > 100 | > 100 | > 100
21 | CCCCNc1nc2ccccc2c2c1ncn2CC(C)C | > 100 | > 100 | > 100 | > 100 | > 100 | > 100 | > 100 | > 100 | > 100 | > 100 | > 100 | > 100 | > 100 | > 100 | > 100 | > 100 | > 100 | > 100 | > 100 | > 100
22 | CC1=NN(c2nc(N)nc(CBr)n2)C(C)(C)C1 | 37.1 | 3.06 | 17.4 | 35.1 | 18.6 | 3.29 | 7.54 | 11.3 | 19.8 | 4.72 | 12.2 | 13.4 | 18 | 12 | 26.2 | 17.1 | 18 | 21.7 | 13.9 | 36.6
23 | CCN(CC)CCC(=O)c1ccc(Sc2ccc(F)cc2)cc1 | > 100 | 29.5 | 33.6 | 41.4 | 85.2 | 35 | 33.4 | 31 | 34 | 33.5 | 39.2 | 40.9 | 33.6 | 35.1 | 34.5 | 48.6 | 42.9 | 31.1 | 33.2 | 34
24 | O=c1[nH]nc(Cc2ccc(Cl)cc2)n1/N=C/c1ccco1 | > 100 | > 100 | > 100 | > 100 | > 100 |  | > 100 | > 100 | > 100 | > 100 | > 100 | > 100 | > 100 | 91.7 |  | > 100 | > 100 | > 100 | > 100 | 78.4

Source: PubChem BioAssay (NCI)
